Test in all cases: NCI anticancer screen, dose series, 48 h
The test system of test [1] is NCI/ADR-RES.
Test [2] has as its system OVCAR-8.
Test [3] has as its system HCC 2998.
Test [4] has as its system A498.
In test [5] the test system is Malme-3M.
The test system of test [6] is SK-MEL-5.
Test [7] deals with KM12.
Test [8] has as its system HCT-116.
The subject of test [9] is OVCAR-5.
The subject of test [10] is ACHN.
Test [11] deals with HCT-15.
The test system of test [12] is OVCAR-4.
Test [13] has as its system SF-295.
The subject of test [14] is UO-31.
The subject of test [15] is SK-MEL-2.
The subject of test [16] is LOX IMVI.
For test [17], the system named is SF-268.
The test system of test [18] is K562.
Test [19] concerns SNB-19.
Test [20] relates to SK-MEL-28.

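The compound was tested at five concentrations on cells cultured in 96-well plates, with a 48-hour exposure period. GI50 marks 50% less growth.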 The source made the active and inactive calls. Cut-off read from the data, not from the text of the source: active = GI50 up to about 1.1 µM and inactive = higher.

Regarding `O=C1OC(OC/C(Br)=C(/Br)COC2OC(=O)C(Cl)=C2Cl)C(Cl)=C1Cl` (stereo not given), the GI50 in test [1] is 6.7 µM (inactive); in test [2], 6.93 µM (inactive); in [3] it was 16.7 µM (inactive); in test [4], 21.9 µM (inactive); in [5] it was 7.57 µM (inactive); in test [6], 13.4 µM (inactive). Also, the GI50 in test [7] is 8.75 µM (inactive); in test [8] it was 3.13 µM (inactive); in test [9], 14.1 µM (inactive); in test [10], 10.4 µM (inactive); in test [11], 9.29 µM; in test [12] it was 7.6 µM (inactive). The GI50 is 16.1 µM (inactive) in test [13]; 6.31 µM (inactive) in [14]; 26.2 µM (inactive) in test [15]; 2.69 µM (inactive) in test [16]; 9.82 µM (inactive) in test [17]; 2.07 µM (inactive) in test [18]. Also, the GI50 is 18.4 µM (inactive) in test [19] and 8.51 µM (inactive) in test [20].

In the case of `Cn1c2ccccc2c(=O)c2c(O)cc3c(c21)C=CC1(CCCCC1)O3`, the GI50 in test [1], in test [2], in test [3], in test [4], in test [5] and in test [6] was > 10 µM (inactive) each time. Further, the GI50 was 1.62 µM (inactive) in test [7]; > 10 µM (inactive) in [8]; 7.18 µM (inactive) in test [9]; > 10 µM (inactive) in [10]; > 10 µM in test [11]; > 10 µM (inactive) in test [12]. The GI50 in test [13] is > 10 µM (inactive); in test [14], > 10 µM (inactive); in test [15] it was > 10 µM (inactive); in test [16], > 10 µM (inactive); in [17] it was > 10 µM (inactive); in test [18] it was 4.5 µM (inactive). Further, the GI50 in test [19] and in test [20] was > 10 µM (inactive) in each case.

`CCC(C#N)NCc1ccc(CNC(C#N)CC)cc1` (stereo not given): the GI50 in [1], in test [2], in test [3], in test [4], in [5] and in test [6] was > 100 µM (inactive) in each case. For the same compound, the GI50 in [7] was > 100 µM (inactive); in [8], > 100 µM (inactive); in [9], > 100 µM (inactive); in test [10], > 100 µM (inactive); in test [11] it was > 100 µM; in [12], > 100 µM (inactive). For the same compound, the GI50 is > 100 µM (inactive) in test [13]; 95.7 µM (inactive) in test [14]; > 100 µM (inactive) in test [15]; > 100 µM (inactive) in [16]; > 100 µM (inactive) in [17]; > 100 µM (inactive) in test [18]. Besides, the GI50 in test [19] and in test [20] was > 100 µM (inactive) in each case.

Regarding `C/C(=N\O)c1cccc(Nc2c3ccccc3nc3occc23)c1`, the GI50 in test [1] was 2.3 µM (inactive); in test [2], 13.7 µM (inactive); in test [3] it was 4.89 µM (inactive); in test [4], 16.7 µM (inactive); in test [5], 2.86 µM (inactive); in test [6], 3.07 µM (inactive). Besides, the GI50 was 6.11 µM (inactive) in test [7]; 3.52 µM (inactive) in test [8]; 48 µM (inactive) in test [9]; 8.07 µM (inactive) in test [10]; 3.38 µM in [11]; 1.8 µM (inactive) in [12]. In addition, the GI50 in test [13] was 4.24 µM (inactive); in test [14], 7.18 µM (inactive); in [15] it was 4.18 µM (inactive); in test [16], 5.78 µM (inactive); in [17], 13.3 µM (inactive); in test [18] it was 3.58 µM (inactive). Further, the figures for the GI50 in test [19] and in [20] were 17.1 µM (inactive) and 4.02 µM (inactive), respectively.

For the compound `c1cc2cc(c1)CN1CCNCCN(CCNCC1)Cc1cccc(c1)CN1CCNCCN(CCNCC1)C2`, the GI50 in test [1], in test [2], in test [3], in test [4], in [5] and in test [6] was > 100 µM (inactive) in each case. Also, the GI50 in test [7] was > 100 µM (inactive); in test [8] it was > 100 µM (inactive); in test [9] it was > 100 µM (inactive); in test [10] it was > 100 µM (inactive); in test [11] it was > 100 µM; in test [12] it was > 100 µM (inactive). The GI50 in test [13], in [14], in test [15], in test [16], in test [17] and in test [18] was > 100 µM (inactive) throughout. The GI50 in test [19] and in test [20] was > 100 µM (inactive) in each case.

Turning to `CCOC(=O)Cn1nnc2ccc(Nc3nc4ccccc4nc3-c3ccccc3)cc21`, the GI50 in test [1] was > 100 µM (inactive); in test [2], > 100 µM (inactive); in test [3], 17.3 µM (inactive); in [4], > 100 µM (inactive); in test [5] it was > 100 µM (inactive); in [6] it was > 100 µM (inactive). The GI50 in test [7] was > 100 µM (inactive); in test [8], 95.3 µM (inactive); in test [9] it was > 100 µM (inactive); in [10], > 100 µM (inactive); in test [11] it was > 100 µM; in test [12], 68.9 µM (inactive). For the same compound, the GI50 in test [13] was 85.5 µM (inactive); in test [14], 4.72 µM (inactive); in test [15], > 100 µM (inactive); in [16], > 100 µM (inactive); in [17], 65.5 µM (inactive); in [18] it was > 100 µM (inactive). In addition, the GI50 was 70 µM (inactive) in [19] and > 100 µM (inactive) in test [20].

On to `COC(=O)c1cc(NC(=O)Cn2c3ccccc3c3ccccc32)cn1C`, for which the GI50 in test [1] was 30.3 µM (inactive); in test [2], 30.1 µM (inactive); in [3], 78.9 µM (inactive); in test [4] it was > 100 µM (inactive); in [5], 30.2 µM (inactive); in test [6], 65.8 µM (inactive). Besides, the GI50 is 38.2 µM (inactive) in [7]; 46.2 µM (inactive) in [8]; > 100 µM (inactive) in [9]; 33.7 µM (inactive) in [10]; 92.7 µM in test [11]; 17.3 µM (inactive) in [12]. Besides, the GI50 in [13] is 26.9 µM (inactive); in test [14] it was 25 µM (inactive); in test [15], 47.9 µM (inactive); in test [16], 53.3 µM (inactive); in test [17], 30.6 µM (inactive); in test [18], 59.2 µM (inactive). Further, the GI50 in test [19] is 39.4 µM (inactive); in [20] it was > 100 µM (inactive).

For the compound `CCOP(=O)(OCC)[C@H](O)c1ccsc1`, the GI50 in test [1], in test [2], in [3], in test [4], in test [5] and in test [6] was > 100 µM (inactive) each time. For the same compound, the GI50 in [7] was > 100 µM (inactive); in test [8] it was > 100 µM (inactive); in [9] it was > 100 µM (inactive); in test [10], > 100 µM (inactive); in test [11], > 100 µM; in [12], > 100 µM (inactive). The GI50 in test [13], in test [14], in test [15], in test [16], in test [17] and in test [18] was > 100 µM (inactive) in each case. The GI50 in test [19] and in test [20] was > 100 µM (inactive) each time.

`CS(=O)(=O)Nc1ccc2ccccc2c1`: the GI50 in test [1], in [2], in test [3], in [4], in test [5] and in [6] was > 100 µM (inactive) throughout. Also, the GI50 in [7] is > 100 µM (inactive); in test [8], > 100 µM (inactive); in test [9], > 100 µM (inactive); in test [10], > 100 µM (inactive); in test [11], > 100 µM; in test [12] it was > 100 µM (inactive). Moreover, the GI50 in [13] was > 100 µM (inactive); in test [14], 21.1 µM (inactive); in [15], > 100 µM (inactive); in test [16], > 100 µM (inactive); in [17], > 100 µM (inactive); in test [18] it was > 100 µM (inactive). Moreover, the GI50 in [19] and in test [20] was > 100 µM (inactive) each time.

As for `CCN(CC)CC(=O)O[C@]1(CC)C(=O)OCc2c1cc1n(c2=O)Cc2cc3ccccc3nc2-1`, the GI50 in test [1] was < 0.01 µM (active); in test [2] it was 0.0285 µM (active); in test [3], 0.149 µM (active); in test [4], 0.0583 µM (active); in test [5] it was 0.219 µM (active); in test [6] it was 0.0313 µM (active). Besides, the GI50 in [7] is 0.149 µM (active); in test [8] it was 0.0307 µM (active); in test [9], 0.0885 µM (active); in [10], < 0.01 µM (active); in [11], 0.17 µM; in [12], 0.201 µM (active). Besides, the GI50 in test [13] was 0.0102 µM (active); in test [14], 0.0196 µM (active); in [15], 0.382 µM (active); in test [16] it was < 0.0116 µM (active); in [17], < 0.012 µM (active); in test [18], 0.0451 µM (active). Moreover, the results for the GI50 in test [19] and in test [20] were < 0.01 µM (active) and 0.179 µM (active), respectively.
